Measurements as given in article PMC6222509, “Dibasic Derivatives of Phenylcarbamic Acid against Mycobacterial Strains: Old Drugs and New Tricks?” (Molecules : A Journal of Synthetic Chemistry and Natural …, 2018).
Values after ≈ are worked out from the molar mass of the structure shown. Read-outs that look alike come from different tables or passages of the source.

How the values were obtained:
[1] = system: M. marinum CAMP 5644 (MM); assay: in vitro antimycobacterial MIC, broth dilution micromethod in Middlebrook 7H9; format: cell-based, Mycobacterium marinum; conditions: Mycobacterium marinum, 504 h
[2] = system: M. smegmatis ATCC 700084 (MS); assay: as above; format: cell-based, Mycobacterium smegmatis; conditions: Mycolicibacterium smegmatis, ATCC700084, 72 h
[3] = lipophilicity by isocratic RP-HPLC (log k, k, log kw, S); format: physicochemical; conditions: for log kw: extrapolated to 100% water from log k versus ϕM; for S (slope): slope of log k versus ϕM regression
Excerpt: Octadecyl-functionalized silica gel was currently used as a stationary phase (SPh) and a […] of two solvents at different volume ratios modified retention properties of the SPh. Liquid binary mixtures of methanol (MeOH) with water were employed as mobile phases (MPhs) in the isocratic RP-HPLC. The MeOH modifier was preferred because of similarity of both observed and extrapolated lipophilicity parameters with the ones determined in the octan-1-ol/water partition system, considering also sensitivity to H-bond donor properties of investigated compounds [41].
The modifier was applied in different volume concentrations, which varied from […] (v/v) with 5% increments. This interval was chosen due to very high lipophilicity of investigated salts. Practically, lower volume concentration of MeOH, i.e., less than 85% (v/v) in used MPhs, caused uncertainty of retention times (tr) due to notable peaks broadening, especially within subsets 1i–l and 1m–p. […] The highest tr parameters were found for the molecules 1k (tr = 47.108 min) and 1l (tr = 70.012 min) in the MPh containing 85% proportion (v/v) of MeOH (Table 2).
According to the authors’ opinions based on systematic scientific literature survey, a current research paper was the first, which aimed the log kw parameters of 2-/3-alkoxyphenylcarbamic acid derivatives containing two centers of protonation. The log kw values were extrapolated from intercepts of a relationship between log k and volume fraction of the MPh modifier (ϕM) using the Snyder–Soczewiński linear solvent strength model. The relationship was justified by R > 0.9900, Adj. R^2 > 0.9750 as well as F > 180.00 for calculation of particular log kw parameters (Table 3).
The HPLC separation module Waters e2695 equipped with a Waters 2996 PDA Detector (Waters Corp., Milford, MA, USA) and chromatographic column Symmetry C18 × 5 μm, 4.6 × 250 mm, Part No. W21751W016 (Waters Corp.) were used for estimation of lipophilic properties of the compounds 1a–p at 21 °C.
Isocratic elution was carried out using mobile phases consisting of methanol p.a. (MeOH; Honeywell, Paris, France) and purified water in various volume ratios (80:20, 85:15, 90:10, 95:5 (v/v) and pure MeOH, respectively). Distilled water (CentralChem, Bratislava, Slovak Republic) was purified by the Aquinity2 P10 ultra-pure water system for production of ultra-pure water with an integrated 10 L permeate tank (membraPure, Hennigsdorf, Germany).
Total flow of the column was 1.0 mL/min, injection volume was 4 μL and column temperature was set to 40 °C. The detection wavelengths varying from 236 nm to 238 nm were chosen for current experimental procedures.
Lipophilicity of the compounds 1a–p was determined by reversed-phase high-performance liquid chromatography (RP-HPLC). Methanol (MeOH)/water mobile phases with varying volume ratio of the organic modifier and water (80:20, 85:15, 90:10, 95:5 (v/v) and pure MeOH, respectively) were chosen.
A methanolic solution of potassium iodine was used for dead time (td) determination. Retention factors (capacity factors; k) were calculated according to Equation (17):k = (tr− td)/td(17) where tr was retention time of a solute (in min), the td parameter denoted dead time of potassium iodine, an unretained analyte (in min).
The observed retention (tr) and dead (td) times were means of three independent determinations. Average td values of potassium iodine in used MPhs were as follows: 2.237 min (MeOH/water ratio (v/v) was 80:20), 2.245 min (85:15), 2.245 min (90:10), 2.228 min (95:5) and 2.210 min (pure MeOH), respectively. […]

[4] = surface tension, drop count method, Traube stalagmometer; format: physicochemical; conditions: aqueous solution c = 2.0 × 10^−3 M, 21 °C; water γ = 0.07259 N/m
Description: Surface tension (relative surface activity; γ) of aqueous solutions of the compounds 1a–p (c = 2.0 × 10^−3 M) was determined by a drop count technique using a Traube stalagmometer. All evaluated substances were able to decrease surface tension of water (γ = 0.07259 N/m) at 21 °C.
Surface tension (relative surface activity; γ) of the derivatives 1a–p was determined by a drop count method using a glassy Traube stalagmometer (Kavalier Glass, Prague, Czech Republic). Number of drops of compounds’ and reference solutions were counted between upper and lower marks of the stalagmometer. Aqueous solutions of the molecules 1a–p were prepared with distilled, deionized water (c = 2.0 × 10^−3 M). […] The drops were allowed to form at constant temperature 21 °C. The experimental procedure was described in a paper. Current measurements were done in six replicates and average γ values (in N/m units) were reported (Table 1).

[5] = system: M. avium CNCTC My 330/80 (identical with ATCC 25291; MA 330/80); assay: in vitro antimycobacterial MIC, dilution micromethod in Šula's semisynthetic medium; format: cell-based, Mycobacterium avium
[6] = read-out: MIC MM 21-d, 21-day cultivation, 28 °C
[7] = read-out: MIC MS 3-d, 3-day cultivation, 37 °C
[8] = mobile phase MeOH/water 80:20 (v/v)
[9] = mobile phase MeOH/water 85:15 (v/v)
[10] = mobile phase MeOH/water 90:10 (v/v)
[11] = mobile phase MeOH/water 95:5 (v/v)
[12] = 21-day cultivation, 28 °C, read-out: MIC MM 21-d
[13] = 3-day cultivation, 37 °C, read-out: MIC MS 3-d
[14] = Mycobacterium avium, ATCC25291, 336 h, 14-day cultivation, read-out: MIC MA 330/80 14-d
[15] = Mycobacterium avium, ATCC25291, 504 h, 21-day cultivation, read-out: MIC MA 330/80 21-d
[16] = Mycobacterium avium, ATCC25291, 336 h, read-out: MIC MA 330/80 14-d
[17] = Mycobacterium avium, ATCC25291, 504 h, read-out: MIC MA 330/80 21-d

CCCCCCCOc1cccc(NC(=O)OC(CN(CCC)CCC)CN2CCCCCC2)c1.Cl.Cl (stereo not shown) [1p, 1-[2-[({[3-(heptyloxy)phenyl]amino}carbonyl)-oxy]-3-(dipropylammonio)propyl]azepanium dichloride]
MIC [1, 6]: 7.1 µM
MIC [2, 7]: 7.1 µM
log kw [3]: 6.1749
k (retention factor) [3, 8]: 14.0734
log k [3, 8]: 1.1484
k (retention factor) [3, 9]: 6.6298
log k [3, 9]: 0.8215
k (retention factor) [3, 10]: 4.0476
log k [3, 10]: 0.6072
k (retention factor) [3, 11]: 1.6036
log k [3, 11]: 0.2051
k (retention factor) ([3]; mobile phase pure MeOH): 0.7759
log k ([3]; mobile phase pure MeOH): −0.1102
S (slope) [3]: 6.2672
surface tension γ (relative surface activity) [4]: 0.05692 N/m
MIC ([5]; 14-day cultivation, read-out: MIC MA 330/80 14-d): 16 µM
MIC ([5]; 21-day cultivation, read-out: MIC MA 330/80 21-d): 16 µM

CCCCCCOc1cccc(NC(=O)OC(CN(CCC)CCC)CN2CCCC2)c1 (stereo not shown) [1g]
MIC [1, 12]: < 3.8 µM
MIC [2, 13]: 15.4 µM (≈ 6.89 µg/mL)
log kw [3]: 4.9446
k (retention factor) [3, 8]: 6.6896
log k [3, 8]: 0.8254
k (retention factor) [3, 9]: 4.0776
log k [3, 9]: 0.6104
k (retention factor) [3, 10]: 2.3329
log k [3, 10]: 0.3679
k (retention factor) [3, 11]: 1.3128
log k [3, 11]: 0.1182
k (retention factor) ([3]; mobile phase pure MeOH): 0.6213
log k ([3]; mobile phase pure MeOH): −0.2067
S (slope) [3]: 5.1128
surface tension γ (relative surface activity) [4]: 0.06105 N/m
MIC [5, 14]: 16 µM (≈ 7.16 µg/mL)
MIC [5, 15]: 16 µM (≈ 7.16 µg/mL)
MIC ([5]; Mycobacterium avium, ATCC25291, cultivation time not given, read-out: MIC MA 330/80): 16 µM (≈ 7.16 µg/mL)

CCCCOc1ccccc1NC(=O)OC(CN(CCC)CCC)CN1CCCCCC1 (stereo not shown) [1i]
MIC [1, 12]: 51 µM (≈ 22.8 µg/mL)
MIC [2, 7]: 203 µM (≈ 90.9 µg/mL)
log kw [3]: 4.4679
k (retention factor) [3, 8]: 9.7297
log k [3, 8]: 0.9881
k (retention factor) [3, 9]: 6.5358
log k [3, 9]: 0.8153
k (retention factor) [3, 10]: 4.2073
log k [3, 10]: 0.6240
k (retention factor) [3, 11]: 2.4854
log k [3, 11]: 0.3954
k (retention factor) ([3]; mobile phase pure MeOH): 1.3198
log k ([3]; mobile phase pure MeOH): 0.1205
S (slope) [3]: 4.3102
surface tension γ (relative surface activity) [4]: 0.06302 N/m
MIC [5, 14]: 62.5 µM (≈ 28 µg/mL)
MIC [5, 15]: 125 µM (≈ 56 µg/mL)

CCCCCOc1ccccc1NC(=O)OC(CN(CCC)CCC)CN1CCCCCC1.O=C(O)C(=O)O (stereo not shown) [1j, 1-[2-[({[2-(Pentyloxy)phenyl]amino}carbonyl)oxy]-3-(dipropylammonio)propyl]-azepanium oxalate]
MIC [1, 6]: 50 µM
MIC [2, 7]: 6.2 µM
log kw [3]: 4.8466
k (retention factor) [3, 8]: 12.1983
log k [3, 8]: 1.0863
k (retention factor) [3, 9]: 7.9086
log k [3, 9]: 0.8981
k (retention factor) [3, 10]: 4.8173
log k [3, 10]: 0.6828
k (retention factor) [3, 11]: 2.8242
log k [3, 11]: 0.4509
k (retention factor) ([3]; mobile phase pure MeOH): 1.3960
log k ([3]; mobile phase pure MeOH): 0.1449
S (slope) [3]: 4.6600
surface tension γ (relative surface activity) [4]: 0.06206 N/m
MIC [5, 16]: 62.5 µM
MIC [5, 17]: 125 µM

CCCCCCOc1ccccc1NC(=O)OC(CN(CCC)CCC)CN1CCCC1 (stereo not shown) [1c]
MIC [1, 12]: 25.5 µM (≈ 11.4 µg/mL)
MIC [2, 13]: 51 µM (≈ 22.8 µg/mL)
log kw [3]: 4.6049
k (retention factor) [3, 8]: 10.4858
log k [3, 8]: 1.0206
k (retention factor) [3, 9]: 6.5494
log k [3, 9]: 0.8162
k (retention factor) [3, 10]: 4.0300
log k [3, 10]: 0.6053
k (retention factor) [3, 11]: 2.3351
log k [3, 11]: 0.3683
k (retention factor) ([3]; mobile phase pure MeOH): 1.3449
log k ([3]; mobile phase pure MeOH): 0.1287
S (slope) [3]: 4.4634
surface tension γ (relative surface activity) [4]: 0.06222 N/m
MIC [5, 14]: 32 µM (≈ 14.3 µg/mL)
MIC [5, 15]: 62.5 µM (≈ 28 µg/mL)

CCCCCCOc1cccc(NC(=O)OC(CN(CCC)CCC)CN2CCCCCC2)c1.Cl.Cl (stereo not shown) [1o, 1-[2-[({[3-(hexyloxy)phenyl]amino}-carbonyl)oxy]-3-(dipropylammonio)propyl]azepanium dichloride]
MIC [1, 6]: 7.3 µM
MIC [2, 7]: 7.3 µM
log kw [3]: 5.6569
k (retention factor) [3, 8]: 12.0420
log k [3, 8]: 1.0807
k (retention factor) [3, 9]: 5.0804
log k [3, 9]: 0.7059
k (retention factor) [3, 10]: 3.2915
log k [3, 10]: 0.5174
k (retention factor) [3, 11]: 1.2868
log k [3, 11]: 0.1095
k (retention factor) ([3]; mobile phase pure MeOH): 0.8674
log k ([3]; mobile phase pure MeOH): −0.0618
S (slope) [3]: 5.7628
surface tension γ (relative surface activity) [4]: 0.05925 N/m
MIC [5, 16]: 16 µM
MIC [5, 17]: 16 µM
